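Results reflect a 48-hour exposure of cells in 96-well plates to compound at five concentrations. The concentration for 50% growth inhibition is given as GI50. At the TGI there is no net growth.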
How the values were obtained:
Assay in all cases: DTP human tumour cell line panel, 48 h
IGROV1 ovarian = system: IGROV1 ovarian
HCT-116 colon = system: HCT-116 colon
SK-MEL-2 melanoma = system: SK-MEL-2 melanoma
786-0 renal = system: 786-0 renal
SF-268 CNS = system: SF-268 CNS
HOP-62 NSCLC = system: HOP-62 NSCLC
KM12 colon = system: KM12 colon
HL-60(TB) leukemia = system: HL-60(TB) leukemia
CAKI-1 renal = system: CAKI-1 renal
MALME-3M melanoma = system: MALME-3M melanoma
SF-539 CNS = system: SF-539 CNS
EKVX NSCLC = system: EKVX NSCLC
DU-145 prostate = system: DU-145 prostate
ACHN renal = system: ACHN renal
NCI-H226 lung = system: NCI-H226 lung
SK-OV-3 ovarian = system: SK-OV-3 ovarian
HS 578T breast = system: HS 578T breast
A549 NSCLC = system: A549 NSCLC
NCI-H23 lung = system: NCI-H23 lung
OVCAR-8 ovarian = system: OVCAR-8 ovarian
SK-MEL-28 melanoma = system: SK-MEL-28 melanoma
HOP-92 NSCLC = system: HOP-92 NSCLC
OVCAR-5 ovarian = system: OVCAR-5 ovarian
MDA-MB-231 breast = system: MDA-MB-231 breast
U251 CNS = system: U251 CNS
K-562 leukemia = system: K-562 leukemia
CCRF-CEM leukemia = system: CCRF-CEM leukemia
SNB-19 CNS = system: SNB-19 CNS
UACC-62 melanoma = system: UACC-62 melanoma
SR leukemia = system: SR leukemia
SN12C renal = system: SN12C renal
MDA-MB-435 = system: MDA-MB-435
RPMI-8226 leukemia = system: RPMI-8226 leukemia
UACC-257 melanoma = system: UACC-257 melanoma
M14 melanoma = system: M14 melanoma
T-47D breast = system: T-47D breast
COLO 205 colon = system: COLO 205 colon
A498 renal = system: A498 renal
SF-295 CNS = system: SF-295 CNS
BT-549 breast = system: BT-549 breast
SNB-75 CNS = system: SNB-75 CNS
NCI-H460 lung = system: NCI-H460 lung
SW-620 colon = system: SW-620 colon
SK-MEL-5 melanoma = system: SK-MEL-5 melanoma
MCF7 breast = system: MCF7 breast
LOX IMVI melanoma = system: LOX IMVI melanoma
PC-3 prostate = system: PC-3 prostate
OVCAR-3 ovarian = system: OVCAR-3 ovarian
MOLT-4 leukemia = system: MOLT-4 leukemia
NCI/ADR-RES ovarian = system: NCI/ADR-RES ovarian
TK-10 renal = system: TK-10 renal
NCI-H522 lung = system: NCI-H522 lung
UO-31 renal = system: UO-31 renal
HT29 colon = system: HT29 colon
OVCAR-4 ovarian = system: OVCAR-4 ovarian
HCC-2998 colon = system: HCC-2998 colon
RXF 393 renal = system: RXF 393 renal
HCT-15 colon = system: HCT-15 colon

## CS(=O)(=O)c1ccc2c(c1)c1c(n2C(=O)c2ccc(Cl)cc2)CCCC1
IGROV1 ovarian
  GI50: 3.34 µM
  TGI: > 100 µM
HCT-116 colon
  GI50: 1.27 µM
  TGI: > 100 µM
SK-MEL-2 melanoma
  GI50: 1.15 µM
  TGI: > 100 µM
786-0 renal
  GI50: 3.4 µM
  TGI: > 100 µM
SF-268 CNS
  GI50: 21.5 µM
  TGI: > 100 µM
HOP-62 NSCLC
  GI50: 4.48 µM
  TGI: > 100 µM
KM12 colon
  GI50: 1.59 µM
  TGI: > 100 µM
HL-60(TB) leukemia
  GI50: 1.13 µM
CAKI-1 renal
  GI50: 2.19 µM
  TGI: > 100 µM
MALME-3M melanoma
  GI50: 7.23 µM
  TGI: > 100 µM
SF-539 CNS
  GI50: 6.31 µM
  TGI: 35 µM
EKVX NSCLC
  GI50: 14 µM
  TGI: > 100 µM
DU-145 prostate
  GI50: 7.52 µM
  TGI: > 100 µM
ACHN renal
  GI50: 5.1 µM
  TGI: > 100 µM
NCI-H226 lung
  GI50: 4.62 µM
  TGI: > 100 µM
SK-OV-3 ovarian
  GI50: 22.1 µM
  TGI: > 100 µM
HS 578T breast
  GI50: 1.41 µM
  TGI: > 100 µM
A549 NSCLC
  GI50: 13.5 µM
  TGI: > 100 µM
NCI-H23 lung
  GI50: 28.2 µM
  TGI: > 100 µM
OVCAR-8 ovarian
  GI50: 6.49 µM
  TGI: > 100 µM
SK-MEL-28 melanoma
  GI50: 2.97 µM
  TGI: > 100 µM
HOP-92 NSCLC
  GI50: 2.63 µM
  TGI: > 100 µM
OVCAR-5 ovarian
  GI50: 19.8 µM
  TGI: > 100 µM
MDA-MB-231 breast
  GI50: 6.83 µM
  TGI: > 100 µM
U251 CNS
  GI50: 3.41 µM
  TGI: > 100 µM
K-562 leukemia
  GI50: 1.31 µM
  TGI: > 100 µM
CCRF-CEM leukemia
  GI50: 2.05 µM
  TGI: > 100 µM
SNB-19 CNS
  GI50: 4.16 µM
  TGI: > 100 µM
UACC-62 melanoma
  GI50: 1.27 µM
  TGI: > 100 µM
SR leukemia
  GI50: 1.1 µM
  TGI: > 100 µM
SN12C renal
  GI50: 3.43 µM
  TGI: > 100 µM
MDA-MB-435
  GI50: 0.614 µM
  TGI: 1.51 µM
RPMI-8226 leukemia
  GI50: 4.6 µM
  TGI: > 100 µM
UACC-257 melanoma
  GI50: > 100 µM
  TGI: > 100 µM
M14 melanoma
  GI50: 1.56 µM
  TGI: > 100 µM
T-47D breast
  GI50: 2.54 µM
  TGI: > 100 µM
COLO 205 colon
  GI50: 18.9 µM
  TGI: > 100 µM
A498 renal
  GI50: > 100 µM
  TGI: > 100 µM
SF-295 CNS
  GI50: 1.96 µM
  TGI: > 100 µM
BT-549 breast
  GI50: 1.64 µM
  TGI: > 100 µM
SNB-75 CNS
  GI50: 5.05 µM
  TGI: 64.9 µM
NCI-H460 lung
  GI50: 1.5 µM
  TGI: > 100 µM
SW-620 colon
  GI50: 1.61 µM
  TGI: > 100 µM
SK-MEL-5 melanoma
  GI50: 2.45 µM
  TGI: > 100 µM
MCF7 breast
  GI50: 1.08 µM
  TGI: > 100 µM
LOX IMVI melanoma
  GI50: 2.43 µM
  TGI: > 100 µM
PC-3 prostate
  GI50: 4.75 µM
  TGI: > 100 µM
OVCAR-3 ovarian
  GI50: 5.01 µM
  TGI: 46.3 µM
MOLT-4 leukemia
  GI50: 2.86 µM
  TGI: > 100 µM
NCI/ADR-RES ovarian
  GI50: 1.4 µM
  TGI: > 100 µM
TK-10 renal
  GI50: > 100 µM
  TGI: > 100 µM
NCI-H522 lung
  GI50: 0.717 µM
  TGI: 2.57 µM
UO-31 renal
  GI50: 3.22 µM
  TGI: > 100 µM
HT29 colon
  GI50: 4.34 µM
  TGI: 67.4 µM
OVCAR-4 ovarian
  GI50: 21.1 µM
  TGI: > 100 µM
HCC-2998 colon
  GI50: 16.8 µM
  TGI: > 100 µM
RXF 393 renal
  GI50: 4.23 µM
  TGI: 40.7 µM
HCT-15 colon
  GI50: 1.32 µM
  TGI: > 100 µM

— PubChem BioAssay (NCI)
